Reference: ChEMBL document CHEMBL5543105, “Total synthesis and structural modification of the dibenzylbutane lignan LCA as a potent anti-inflammatory agent against LPS-induced acute lung injury” (Eur J Med Chem, 2024)
Active and inactive are the calls of the source. The calls are words filed in the database; no cut-off is given here.

Legend:
[1] = system: Mus musculus; experiment: Anti-inflammatory activity against LPS-induced acute […] injury C57BL/6 mouse model assessed as reduction in IL-1beta level in serum at 20 mg/kg, ip administered for 1 hr and measured after 6 hrs by ELISA analysis; assay type: functional, organism-based; settings: time 7.0 hrs
[2] = system: Mus musculus; experiment: Anti-inflammatory activity against LPS-induced acute […] injury C57BL/6 mouse model assessed as improvement in pulmonary hemorrhage at 20 mg/kg, ip administered for 1 hr and measured after 6 hrs by H and E staining based analysis; assay type: functional, organism-based; settings: time 7.0 hrs
[3] = system: Mus musculus; experiment: Anti-inflammatory activity against LPS-induced acute […] injury C57BL/6 mouse model assessed as reduction in congestion in lung at 20 mg/kg, ip administered for 1 hr and measured after 6 hrs by H and E staining based analysis; assay type: functional, organism-based; settings: time 7.0 hrs
[4] = system: Mus musculus; experiment: Anti-inflammatory activity against LPS-induced acute […] injury C57BL/6 mouse model assessed as decrease in TNF-alpha mRNA expression in lung at 20 mg/kg, ip administered for 1 hr and measured after 6 hrs by RT-qPCR analysis; assay type: functional, organism-based; settings: time 7.0 hrs
[5] = system: Mus musculus; experiment: Anti-inflammatory activity against LPS-induced acute […] injury C57BL/6 mouse model assessed as reduction in alveolar thickness in lung at 20 mg/kg, ip administered for 1 hr and measured after 6 hrs by H and E staining based analysis; assay type: functional, organism-based; settings: time 7.0 hrs
[6] = system: RAW264.7; experiment: Anti-inflammatory activity against mouse RAW264.7 cells assessed as reduction in NO level pretreated with compound for 1 hr followed by LPS-induction and measured after 24 hrs; assay type: functional, cell-based; settings: dose 1.25-20 µM, time 25.0 hrs
[7] = system: Mus musculus; experiment: Anti-inflammatory activity against LPS-induced acute […] injury C57BL/6 mouse model assessed as reduction in IL-6 level in serum at 20 mg/kg, ip administered for 1 hr and measured after 6 hrs by ELISA analysis; assay type: functional, organism-based; settings: time 7.0 hrs
[8] = system: RAW264.7; experiment: Anti-inflammatory activity against mouse RAW264.7 cells assessed as inhibition of LPS-stimulated nitric oxide production at 2.5 to 20 uM incubated for 5 hrs by Griess reagent based microplate reader analysis; assay type: functional, cell-based; settings: dose 2.5-20 µM
[9] = system: Mus musculus; experiment: Anti-inflammatory activity against LPS-induced acute […] injury C57BL/6 mouse model assessed as reduction in inflammatory cell infiltration at 20 mg/kg, ip administered for 1 hr and measured after 6 hrs by H and E staining based analysis; assay type: functional, organism-based; settings: time 7.0 hrs
[10] = system: Mus musculus; experiment: Anti-inflammatory activity against LPS-induced acute […] injury C57BL/6 mouse model assessed as reduction in wet weight to dry weight ratio in lung at 20 mg/kg, ip administered for 1 hr and measured after 6 hrs; assay type: functional, organism-based; settings: time 7.0 hrs
[11] = system: Mus musculus; experiment: Anti-inflammatory activity against LPS-induced acute […] injury C57BL/6 mouse model assessed as decrease in IL-1beta mRNA expression in lung at 20 mg/kg, ip administered for 1 hr and measured after 6 hrs by RT-qPCR analysis; assay type: functional, organism-based; settings: time 7.0 hrs
[12] = system: Mus musculus; experiment: Anti-inflammatory activity against LPS-induced acute […] injury C57BL/6 mouse model assessed as reduction in bleeding points in lung at 20 mg/kg, ip administered for 1 hr and measured after 6 hrs by H and E staining based analysis; assay type: functional, organism-based; settings: time 7.0 hrs
[13] = system: RAW264.7; experiment: Anti-inflammatory activity against mouse RAW264.7 cells assessed as reduction in LPS-induced IkappaBalpha level at 10 to 20 uM pretreated with compound for 1 hr followed by LPS-induction and measured after 4 hrs by Western blot analysis; assay type: functional, cell-based; settings: dose 10-20 µM, time 5.0 hrs
[14] = system: Mus musculus; experiment: Anti-inflammatory activity against LPS-induced acute […] injury C57BL/6 mouse model assessed as reduction in TNF-alpha level in BALF at 20 mg/kg, ip administered for 1 hr and measured after 6 hrs by ELISA analysis; assay type: functional, organism-based; settings: time 7.0 hrs
[15] = system: RAW264.7; experiment: Anti-inflammatory activity against mouse RAW264.7 cells assessed as inhibition of LPS-induced IL-1beta mRNA expression pretreated with compound for 1 hr followed by LPS-induction and measured after 24 hrs by RT-qPCR analysis; assay type: functional, cell-based; settings: dose 10-20 µM, time 25.0 hrs
[16] = system: Mus musculus; experiment: Anti-inflammatory activity against LPS-induced acute […] injury C57BL/6 mouse model assessed as improvement in alveolar wall thickness at 20 mg/kg, ip administered for 1 hr and measured after 6 hrs by H and E staining based analysis; assay type: functional, organism-based; settings: time 7.0 hrs
[17] = system: RAW264.7; experiment: Anti-inflammatory activity against mouse RAW264.7 cells assessed as inhibition of LPS-induced p65 phosphorylation at 10 to 20 uM pretreated with compound for 1 hr followed by LPS-induction and measured after 4 hrs by Western blot analysis; assay type: functional, cell-based; settings: dose 10-20 µM, time 5.0 hrs
[18] = system: Mus musculus; experiment: Anti-inflammatory activity against LPS-induced acute […] injury C57BL/6 mouse model assessed as reduction in lung edema at 20 mg/kg, ip administered for 1 hr and measured after 6 hrs by H and E staining based analysis; assay type: functional, organism-based; settings: time 7.0 hrs
[19] = system: RAW264.7; experiment: Cytotoxicity against mouse RAW264.7 cells upto 20 uM incubated for 24 hrs by CCK-8 assay; assay type: toxicity, cell-based; settings: raw264.7, 24 h
[20] = system: RAW264.7; experiment: Anti-inflammatory activity against mouse RAW264.7 cells assessed as reduction in LPS-induced TNF-alpha level pretreated with compound for 1 hr followed by LPS-induction and measured after 24 hrs by ELISA analysis; assay type: functional, cell-based; settings: dose 1.25-20 µM, time 25.0 hrs
[21] = system: Mus musculus; experiment: Anti-inflammatory activity against LPS-induced acute […] injury C57BL/6 mouse model assessed as improvement in lung edema at 20 mg/kg, ip administered for 1 hr and measured after 6 hrs by H and E staining based analysis; assay type: functional, organism-based; settings: time 7.0 hrs
[22] = system: RAW264.7; experiment: Anti-inflammatory activity against mouse RAW264.7 cells assessed as inhibition of LPS-induced IL-6 mRNA expression pretreated with compound for 1 hr followed by LPS-induction and measured after 24 hrs by RT-qPCR analysis; assay type: functional, cell-based; settings: dose 10-20 µM, time 25.0 hrs
[23] = system: Mus musculus; experiment: Anti-inflammatory activity against LPS-induced acute […] injury C57BL/6 mouse model assessed as reduction in IL-6 level in BALF at 20 mg/kg, ip administered for 1 hr and measured after 6 hrs by ELISA analysis; assay type: functional, organism-based; settings: time 7.0 hrs
[24] = system: RAW264.7; experiment: Anti-inflammatory activity against mouse RAW264.7 cells assessed as reduction in LPS-induced IL-6 level pretreated with compound for 1 hr followed by LPS-induction and measured after 24 hrs by ELISA analysis; assay type: functional, cell-based; settings: dose 1.25-20 µM, time 25.0 hrs
[25] = system: Mus musculus; experiment: Anti-inflammatory activity against LPS-induced acute […] injury C57BL/6 mouse model assessed as improvement in alveolar structure at 20 mg/kg, ip administered for 1 hr and measured after 6 hrs by H and E staining based analysis; assay type: functional, organism-based; settings: time 7.0 hrs
[26] = system: Mus musculus; experiment: Anti-inflammatory activity against LPS-induced acute […] injury C57BL/6 mouse model assessed as reduction in IL-1beta level in BALF at 20 mg/kg, ip administered for 1 hr and measured after 6 hrs by ELISA analysis; assay type: functional, organism-based; settings: time 7.0 hrs
[27] = system: Mus musculus; experiment: Anti-inflammatory activity against LPS-induced acute […] injury C57BL/6 mouse model assessed as improvement in destruction of lung structure at 20 mg/kg, ip administered for 1 hr and measured after 6 hrs by H and E staining based analysis; assay type: functional, organism-based; settings: time 7.0 hrs
[28] = system: RAW264.7; experiment: Anti-inflammatory activity against mouse RAW264.7 cells assessed as inhibition of LPS-induced TNF-alpha mRNA expression pretreated with compound for 1 hr followed by LPS-induction and measured after 24 hrs by RT-qPCR analysis; assay type: functional, cell-based; settings: dose 10-20 µM, time 25.0 hrs
[29] = system: RAW264.7; experiment: Anti-inflammatory activity against mouse RAW264.7 cells assessed as reduction in LPS-induced IL-1beta level pretreated with compound for 1 hr followed by LPS-induction and measured after 24 hrs by ELISA analysis; assay type: functional, cell-based; settings: dose 1.25-20 µM, time 25.0 hrs
[30] = system: RAW264.7; experiment: Anti-inflammatory activity against mouse RAW264.7 cells assessed as inhibition of LPS-induced nuclear translocation at 10 to 20 uM pretreated with compound for 1 hr followed by LPS-induction and measured after 4 hrs by DAPI staining based fluorescence microscopic analysis; assay type: functional, cell-based; settings: dose 10-20 µM, time 5.0 hrs
[31] = system: Mus musculus; experiment: Anti-inflammatory activity against LPS-induced acute […] injury C57BL/6 mouse model assessed as reduction in TNF-alpha level in serum at 20 mg/kg, ip administered for 1 hr and measured after 6 hrs by ELISA analysis; assay type: functional, organism-based; settings: time 7.0 hrs
[32] = system: RAW264.7; experiment: Anti-inflammatory activity against mouse RAW264.7 cells assessed as inhibition of LPS-induced NO production at 20 uM incubated for 24 hrs; assay type: functional, cell-based
[33] = system: Mus musculus; experiment: Anti-inflammatory activity against LPS-induced acute […] injury C57BL/6 mouse model assessed as decrease in IL-6 mRNA expression in lung at 20 mg/kg, ip administered for 1 hr and measured after 6 hrs by RT-qPCR analysis; assay type: functional, organism-based; settings: time 7.0 hrs

## COc1cc(C[C@H](C(=O)N2CCN(c3cccc(C)c3C)CC2)[C@@H](Cc2cc(OC)c(O)c(OC)c2)C(=O)N2CCN(c3cccc(C)c3C)CC2)cc(OC)c1O
[1]
  Activity: Active
[2]
  Activity: Active
[3]
  Activity: Active
[4]
  Activity: Active
[5]
  Activity: Active
[6]
  Activity: Dose-Dependent Effect
[7]
  Activity: Active
[8]
  Activity: Active
[9]
  Activity: Active
[10]
  Activity: Active
[11]
  Activity: Active
[12]
  Activity: Active
[13]
  Activity: Active
[14]
  Activity: Active
[15]
  Activity: Dose-Dependent Effect
[16]
  Activity: Active
[17]
  Activity: Active
[18]
  Activity: Active
[19]
  Activity: Non-Toxic
[20]
  Activity: Dose-Dependent Effect
[21]
  Activity: Active
[22]
  Activity: Dose-Dependent Effect
[23]
  Activity: Active
[24]
  Activity: Dose-Dependent Effect
[25]
  Activity: Active
[26]
  Activity: Active
[27]
  Activity: Active
[28]
  Activity: Dose-Dependent Effect
[29]
  Activity: Dose-Dependent Effect
[30]
  Activity: Active
[31]
  Activity: Active
[32]
  Activity: Active
[33]
  Activity: Active
